{"source": "patent US20120225093A1", "about": "“Abrogating HIV-1 Infection via Drug-Induced Reactivation of Apoptosis” (UNIVERSITY OF MEDICINE AND DENTISTRY OF NEW JERSEY, priority 2010, published 2012)", "key": {"[1]": {"conditions": "in vivo, cited from earlier work"}, "[2]": {"test_system": "bioavailable intracellular iron", "test": "IRE-controlled luciferase reporter in 293T cells", "assay_type": "cell-based, human", "conditions": "12 hr", "experimental": "293T cells (10^5 cells/well of 12-well microplates) were seeded and transfected 20 hr later with a firefly luciferase (Luc)-expressing reporter plasmid and corresponding Renilla luciferase (Ren)-expressing reference plasmid using TransFectin™ (Bio-Rad, Hercules, Calif.). The bioavailable intracellular iron concentration was monitored using plasmids obtained from B. Galy and M. W. Hentze (EMBL, Heidelberg). Plasmid pcFIF-Luc contains the mouse ferritin H 5′-UTR with an iron response element (IRE) controlling Luc; pcFIRo-Ren is a similar construct expressing a mutated non-functional IRE fused to Ren. The activity of the HIV-1 promoter was monitored using the pNL4-3-Luc E molecular clone (Chen et al. (1994) J Virol 68: 654-660.), based on the recombinant infectious proviral clone that contains DNA from HIV isolates NY5 (5′ half) and IIIB (3′ half). This plasmid, obtained from D. Baltimore (Caltech, Pasadena), contains the Luc gene in place of 102 nucleotides from nef and 6 nucleotides from env. pCMV-Ren (Promega, Madison, Wis.) was used as reference for pNL4-3-Luc E. Compounds were added at the time of transfection. Cells were harvested 12 hr later, washed with phosphate-buffered saline, and lysed for the dual luciferase assay (Dual Luciferase™ Reporter Assay System; Promega, Madison, Wis.). Luc data were normalized to the Ren internal controls (Hogue et al. (2009) Retrovirology 6: 90.).\nBoth CPX and DEF are hydroxypyridinones with vicinally positioned oxygen atoms that mediate bidentate interaction with metal ions, in particular Fe^3+ (FIG. 11A). To evaluate the effect of drugs on the intracellular iron pool and on HIV-1 gene expression, transient expression assays in human 293T cells were exploited. Bioavailable intracellular iron was measured using a construct in which an iron-responsive element (IRE) controls luciferase expression, and HIV-specific transcription was assayed in parallel using an HIV-1 molecular clone that expresses luciferase reporter under the direction of the retroviral promoter. CPX and DEF were compared with the medicinal chelator deferoxamine (DFOX) and with the CPX fragment Agent P2, which consists of the metal-binding 1,2-HOPO domain of CPX but lacks the cyclohexyl moiety (FIG. 11A)."}, "[3]": {"test_system": "HIV p24", "test": "p24 expression from pNL4-3-LucE- molecular clone in 293T cells", "assay_type": "cell-based, HIV-1", "conditions": "293T cell extract; 12 hr post-transfection", "experimental": "FIGS. 3A-D are a set of diagrams and photographs showing drug effects on luciferase expression from an HIV-1 molecular clone. A. Comparison of drug effects on luciferase expression from the pNL4-3-LucE- molecular clone in 293T cells. The molecular clone pNL4-3-LucE- and pCMV-Ren were transfected into 293T cells. Drugs were added where indicated at the following concentrations: P2 (30 μM), CPX (30 μM), DEF (250 μM), or DFOX (15 μM). Dual luciferase assays were conducted at 12 hr post-transfection. Firefly (FF) luciferase expression was normalized to Renilla luciferase (Ren) from pCMV-Ren (mean of 2 experiments in duplicate, ±SD). B. Expression in Jurkat cells was assayed essentially as in panel A. C. Firefly and Renilla luciferase RNA expression was analyzed in 293T cells treated as in panel A by RPA using 32P-[UTP] labeled antisense RNA probes corresponding to the C-termini of the FF and Ren luciferase mRNAs. D. Comparison of drug effects on p24 expression from the pNL4-3-LucE- molecular clone in 293T cells. Drugs were added where indicated to the same concentrations as in A. p24 levels were determined in cell extract at 12 hr post-transfection.\np24 core antigen in the supernatant was quantified by ELISA (Retrotek HIV-1 p24™; ZeptoMetrix Corp.; Buffalo, N.Y.). HIV-1 RNA copy number in the supernatant was determined with a PCR-based and FDA-approved assay (Amplicor HIV-1 Monitor™; Roche Diagnostics Corp.; Indianapolis, Ind.). IFN-γ and IL-10 in the supernatant were determined by cytometric bead array (Human Th1/Th2 Cytokine Kit II™; BD Biosciences Pharmingen, San Jose, Calif.)."}, "[4]": {"molecular_target": "T1, eIF5A:DHS complex (Homo sapiens, UniProt P49366)", "T1 construct": "expressed in transfected cells; host or cells: 293T cells (FLAG-DHS transfected, eIF5A endogenous)", "T1 sequence (P49366 1-369)": "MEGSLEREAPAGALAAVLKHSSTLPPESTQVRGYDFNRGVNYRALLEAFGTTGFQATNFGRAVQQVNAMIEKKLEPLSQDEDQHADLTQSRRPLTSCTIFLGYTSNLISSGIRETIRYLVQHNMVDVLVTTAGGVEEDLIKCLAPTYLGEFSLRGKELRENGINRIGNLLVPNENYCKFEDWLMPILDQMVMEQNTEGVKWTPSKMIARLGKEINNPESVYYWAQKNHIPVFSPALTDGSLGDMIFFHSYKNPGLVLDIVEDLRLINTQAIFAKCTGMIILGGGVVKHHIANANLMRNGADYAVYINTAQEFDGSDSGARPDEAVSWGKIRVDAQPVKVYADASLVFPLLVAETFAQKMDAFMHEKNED", "test": "Co-immunoprecipitation of eIF5A with DHS from 293T cell extracts", "assay_type": "cell-based", "conditions": "293T transfected with FLAG-DHS", "experimental": "(§1) Immunoprecipitation and immunoblotting experiments were carried out as described previously in Hoque et al. Mol Cell Biol 2003, 23:1688-1702.\n(§2) eIF5A forms tight complexes with its modifying enzymes. Unmodified eIF5A (lysine-50) immunoprecipitates with DHS and deoxyhypusyl-eIF5A interacts with DOHH in vitro. It was discovered that the deoxyhypusyl-eIF5A:DOHH complex formed in vivo can be detected by immunoprecipitation from cell extracts. Taking advantage of this finding, the effects of the drugs on the enzyme-substrate interaction were tested. FLAG-eIF5A was expressed in 293T cells and complexes that immunoprecipitated with anti-FLAG antibody were immunoblotted and probed with antibodies against DOHH. […] As a further control, the DHS inhibitor GC7 was included in this assay. […] As expected, none of the compounds affected the immunoprecipitation of FLAG-eIF5A (FIG. 2D, middle panel) or the expression of endogenous eIF5A (FIG. 2D, bottom panel). Reciprocally, the interaction between endogenous eIF5A and tagged DOHH was inhibited by CPX and DEF (FIG. 2E, right). Similarly, the interaction of endogenous eIF5A with tagged DHS was inhibited by GC7 (FIG. 2E, left) but resistant to CPX and DEF. It is concluded that CPX and DEF, but not P2 or DFOX, target DOHH and inhibit its interaction with its substrate, deoxyhypusylelF5A."}, "[5]": {"molecular_target": "T2, eIF5A:DOHH complex (Homo sapiens, UniProt Q9BU89)", "T2 construct": "Endogenous DOHH co-immunoprecipitated with FLAG-eIF5A; expressed in transfected cells; host or cells: 293T cells (DOHH endogenous, FLAG-eIF5A transfected)", "T2 sequence (Q9BU89 1-302)": "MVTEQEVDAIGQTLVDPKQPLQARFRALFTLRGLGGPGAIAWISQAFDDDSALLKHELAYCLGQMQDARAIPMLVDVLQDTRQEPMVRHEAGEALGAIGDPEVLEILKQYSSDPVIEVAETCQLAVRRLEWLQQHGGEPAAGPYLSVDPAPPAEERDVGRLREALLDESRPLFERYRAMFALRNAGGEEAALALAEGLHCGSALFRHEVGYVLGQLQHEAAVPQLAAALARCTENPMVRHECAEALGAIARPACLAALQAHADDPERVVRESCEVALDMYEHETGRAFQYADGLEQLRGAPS", "test": "Co-immunoprecipitation of eIF5A with DOHH from 293T cell extracts", "assay_type": "cell-based", "conditions": "CPX 30 μM, P2 30 μM, DEF 250 μM, DFOX 10 μM, GC7 10 μM; 24 hr", "experimental": "as §1, §2"}}}
{"smiles": "CC(=O)N(O)CCCCCNC(=O)CCC(=O)N(O)CCCCCNC(=O)CCC(=O)N(O)CCCCCN", "note": "[DFOX, deferoxamine]", "values": [{"measurement": "peak concentration achievable in patients", "setting": "[1]; human", "result": 15, "unit": "µM"}, {"measurement": "maximum achievable in human plasma", "setting": "[1]", "result": 20, "unit": "µM"}, {"measurement": "reduction of intracellular iron (IRE-dependent luciferase)", "setting": "[2]", "result": 80, "unit": "%"}, {"measurement": "inhibition of HIV p24 expression from the molecular clone", "setting": "[3]", "result": "no effect"}]}
{"smiles": "NCCCCCCCN=C(N)N", "note": "[GC7]", "values": [{"measurement": "interaction of endogenous eIF5A with tagged DHS", "setting": "[4]", "result": "inhibited"}, {"measurement": "association of endogenous DOHH with FLAG-eIF5A", "setting": "[5]", "result": "No DOHH was associated with FLAG-eIF5A"}]}
